From patent US11274092B2, “Potassium channel inhibitors” (ACESION PHARMA ApS, priority 2016, dated 2022)

The molecules below were run against T1, human SK3 channel (hKCa2.3) (Homo sapiens, UniProt Q9UGI6) (assay: Automated whole cell patch-clamp (QPatch 16 HT), inhibition of SK3 current). Conditions: HEK-293 cells stably expressing hKCa2.3; symmetrical K+ solutions, free calcium 400 nM; effects normalized to N-methyl bicuculline.
T1 construct: expressed in transfected cells
Format: cell-based
Method in brief: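 HEK-293 cells stably expressing hKCa2.3, automated whole-cell patch clamp in symmetrical K+ (400 nM free intracellular Ca2+, pH 7.2; external pH 7.4). Held at 0 mV, ramps −80 to +80 mV (200 ms) every 5 s; increasing compound concentrations, currents run-down corrected and normalized to 100 μM N-methyl bicuculline; IC50 reported.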

| SMILES | IC50 [µM] |
| --- | --- |
| CCN(CC(N)=O)C(=O)CC(Nc1nc2c(CO)cccc2[nH]1)c1cccc(C(F)(F)F)c1 (stereo not shown) [Example 54, N-(carbamoylmethyl)-N-ethyl-3-{[4-(hydroxymethyl)-1H-1,3-benzodiazol-2-yl]amino}-3-[3-(trifluoromethyl)phenyl]propanamide] | < 10 |
| CCN(CC#N)C(=O)CC(Nc1nc2ccccc2[nH]1)c1cccc(C(F)(F)F)c1 (stereo not shown) [Example 55, 3-[(1H-1,3-benzodiazol-2-yl)amino]-N-(cyanomethyl)-N-ethyl-3-[3-(trifluoromethyl)phenyl]propanamide] | < 10 |
| CN(CC#N)C(=O)CC(Nc1nc2ccccc2[nH]1)c1cccc(C(F)(F)F)c1 (stereo not shown) [Example 56, 3-[(1H-1,3-benzodiazol-2-yl)amino]-N-(cyanomethyl)-N-methyl-3-[3-(trifluoromethyl)phenyl]propanamide] | < 10 |
| COC(=O)CN(C)C(=O)CC(Nc1nc2ccccc2[nH]1)c1cccc(C(F)(F)F)c1 (stereo not shown) [Example 57, Methyl 2-{3-[(1H-1,3-benzodiazol-2-yl)amino]-N-methyl-3-[3-(trifluoromethyl)phenyl]propanamido}acetate] | < 10 |
| CCN(CCSC)C(=O)CC(Nc1nc2c(CO)cccc2[nH]1)c1cccc(C(F)(F)F)c1 (stereo not shown) [Example 58, N-ethyl-3-{[4-(hydroxymethyl)-1H-1,3-benzodiazol-2-yl]amino}-N-[2-(methylsulfanyl)ethyl]-3-[3-(trifluoromethyl)phenyl]propanamide] | < 10 |
| COC(=O)CNC(=O)CC(Nc1nc2ccccc2[nH]1)c1cccc(C(F)(F)F)c1 (stereo not shown) [Example 59, Methyl 2-{3-[(1H-1,3-benzodiazol-2-yl)amino]-3-[3-(trifluoromethyl)phenyl]propanamido}acetate] | < 10 |
| CN(CC(N)=O)C(=O)CC(Nc1nc2ccccc2[nH]1)c1cccc(C(F)(F)F)c1 (stereo not shown) [Example 60, 3-[(1H-1,3-benzodiazol-2-yl)amino]-N-(carbamoylmethyl)-N-methyl-3-[3-(trifluoromethyl)phenyl]propanamide] | 10 to 100 |
| COC(=O)N1CCN(C(=O)C(Nc2nc3ccccc3[nH]2)c2cccc(C(F)(F)F)c2)CC1 (stereo not shown) [Example 61, Methyl 4-{2-[(1H-1,3-benzodiazol-2-yl)amino]-2-[3-(trifluoromethyl)phenyl]acetyl}piperazine-1-carboxylate] | < 10 |
| COCC(=O)NCCNC(=O)CC(Nc1nc2ccccc2[nH]1)c1cccc(C(F)(F)F)c1 (stereo not shown) [Example 62, 3-[(1H-1,3-benzodiazol-2-yl)amino]-N-[2-(2-methoxyacetamido)ethyl]-3-[3-(trifluoromethyl)phenyl]propanamide] | 10 to 100 |
| CCNC(=O)OCCNC(=O)CC(Nc1nc2ccccc2[nH]1)c1cccc(C(F)(F)F)c1 (stereo not shown) [Example 63, 2-{3-[(1H-1,3-benzodiazol-2-yl)amino]-3-[3-(trifluoromethyl)phenyl]propanamido}ethyl N-ethylcarbamate] | < 10 |
| CCN(CCO)C(=O)C(Cc1cccc(C(F)(F)F)c1)Nc1nc2ccccc2[nH]1 (stereo not shown) [Example 64, 2-[(1H-1,3-benzodiazol-2-yl)amino]-N-ethyl-N-(2-hydroxyethyl)-3-[3-(trifluoromethyl)phenyl]propanamide] | 10 to 100 |
| CCc1cc(C(CC(=O)N(CC)CCO)Nc2nc3ccccc3[nH]2)ccc1F (stereo not shown) [Example 65, 3-[(1H-1,3-benzodiazol-2-yl)amino]-N-ethyl-3-(3-ethyl-4-fluorophenyl)-N-(2-hydroxyethyl)propanamide] | < 10 |
| CCOC(=O)NCc1ccc2[nH]c(NC(CC(=O)N(CC)CCO)c3cccc(C(F)(F)F)c3)nc2c1 (stereo not shown) [Example 66, Ethyl N-{[2-({2-[ethyl(2-hydroxyethyl)carbamoyl]-1-[3-(trifluoromethyl)phenyl]ethyl}amino)-1H-1,3-benzodiazol-5-yl]methyl}carbamate] | 10 to 100 |
| O=C(CC(Nc1nc2ccccc2[nH]1)c1cccc(C(F)(F)F)c1)NCCOC(F)(F)F (stereo not shown) [Example 67, 3-[(1H-1,3-benzodiazol-2-yl)amino]-N-[2-(trifluoromethoxy)ethyl]-3-[3-(trifluoromethyl)phenyl]propanamide] | < 10 |
| O=C(CC(Nc1nc2ccccc2[nH]1)c1cccc(C(F)(F)F)c1)NCCOCC(F)(F)F (stereo not shown) [Example 68, 3-[(1H-1,3-benzodiazol-2-yl)amino]-N-[2-(2,2,2-trifluoroethoxy)ethyl]-3-[3-(trifluoromethyl)phenyl]propanamide] | < 10 |
| O=C(CC(Nc1nc2ccccc2[nH]1)c1cccc(C(F)(F)F)c1)NCc1ccon1 (stereo not shown) [Example 71, 3-[(1H-1,3-benzodiazol-2-yl)amino]-N-(1,2-oxazol-3-ylmethyl)-3-[3-(trifluoromethyl)phenyl]propanamide] | < 10 |
| O=C(CC(Nc1nc2ccccc2[nH]1)c1cccc(C(F)(F)F)c1)NCc1nc2ccccc2o1 (stereo not shown) [Example 72, 3-[(1H-1,3-benzodiazol-2-yl)amino]-N-(1,3-benzoxazol-2-ylmethyl)-3-[3-(trifluoromethyl)phenyl]propanamide] | < 10 |
| COCC(C)NC(=O)CC(Nc1nc2ccccc2[nH]1)c1cccc(C(F)(F)F)c1 (stereo not shown) [Example 73, 3-[(1H-1,3-benzodiazol-2-yl)amino]-N-(1-methoxypropan-2-yl)-3-[3-(trifluoromethyl)phenyl]propanamide] | < 10 |
| Cc1noc(C)c1CCNC(=O)CC(Nc1nc2ccccc2[nH]1)c1cccc(C(F)(F)F)c1 (stereo not shown) [Example 74, 3-[(1H-1,3-benzodiazol-2-yl)amino]-N-[2-(dimethyl-1,2-oxazol-4-yl)ethyl]-3-[3-(trifluoromethyl)phenyl]propanamide] | < 10 |
| O=C(CC(Nc1nc2ccccc2[nH]1)c1cccc(C(F)(F)F)c1)NCc1nccs1 (stereo not shown) [Example 75, 3-[(1H-1,3-benzodiazol-2-yl)amino]-N-(1,3-thiazol-2-ylmethyl)-3-[3-(trifluoromethyl)phenyl]propanamide] | < 10 |
| Cc1cccc(C(C)NC(=O)CC(Nc2nc3ccccc3[nH]2)c2cccc(C(F)(F)F)c2)n1 (stereo not shown) [Example 76, 3-[(1H-1,3-benzodiazol-2-yl)amino]-N-[1-(6-methylpyridin-2-yl)ethyl]-3-[3-(trifluoromethyl)phenyl]propanamide] | < 10 |
| Cc1ncc(CNC(=O)CC(Nc2nc3ccccc3[nH]2)c2cccc(C(F)(F)F)c2)s1 (stereo not shown) [Example 77, 3-[(1H-1,3-benzodiazol-2-yl)amino]-N-[(2-methyl-1,3-thiazol-5-yl)methyl]-3-[3-(trifluoromethyl)phenyl]propanamide] | < 10 |
| O=C(CC(Nc1nc2ccccc2[nH]1)c1cccc(C(F)(F)F)c1)NCc1cncnc1 (stereo not shown) [Example 78, 3-[(1H-1,3-benzodiazol-2-yl)amino]-N-(pyrimidin-5-ylmethyl)-3-[3-(trifluoromethyl)phenyl]propanamide] | < 10 |

Second part, the molecule after the results:

| IC50 [µM] | SMILES |
| --- | --- |
| < 10 | Cc1cc(CNC(=O)CC(Nc2nc3ccccc3[nH]2)c2cccc(C(F)(F)F)c2)ccn1 (stereo not shown) [Example 79, 3-[(1H-1,3-benzodiazol-2-yl)amino]-N-[(2-methylpyridin-4-yl)methyl]-3-[3-(trifluoromethyl)phenyl]propanamide] |
| < 10 | COCCNC(=O)CC(Nc1nc2ccccc2[nH]1)c1cc(C)c(F)c(C)c1 (stereo not shown) [Example 80, 3-[(1H-1,3-benzodiazol-2-yl)amino]-3-(4-fluoro-3,5-dimethylphenyl)-N-(2-methoxyethyl)propanamide] |
| < 10 | O=C(CC(Nc1nc2ccccc2[nH]1)c1cccc(SC(F)(F)F)c1)NCCOC(F)(F)F (stereo not shown) [Example 81, 3-[(1H-1,3-benzodiazol-2-yl)amino]-N-[2-(trifluoromethoxy)ethyl]-3-{3-[(trifluoromethyl)sulfanyl]phenyl}propanamide] |
| < 10 | COCCNC(=O)CC(Nc1nc2ccccc2[nH]1)c1cccc(SC(F)(F)F)c1 (stereo not shown) [Example 82, 3-[(1H-1,3-benzodiazol-2-yl)amino]-N-(2-methoxyethyl)-3-{3-[(trifluoromethyl)sulfanyl]phenyl}propanamide] |
| < 10 | O=C(CC(Nc1nc2ccccc2[nH]1)c1cccc(OC(F)(F)F)c1)NCCOC(F)(F)F (stereo not shown) [Example 83, 3-[(1H-1,3-benzodiazol-2-yl)amino]-N-[2-(trifluoromethoxy)ethyl]-3-[3-(trifluoromethoxy)phenyl]propanamide] |
| < 10 | COCCNC(=O)CC(Nc1nc2ccccc2[nH]1)c1cccc(OC(F)(F)F)c1 (stereo not shown) [Example 84, 3-[(1H-1,3-benzodiazol-2-yl)amino]-N-(2-methoxyethyl)-3-[3-(trifluoromethoxy)phenyl]propanamide] |
| < 10 | N#CCNC(=O)CC(Nc1nc2ccccc2[nH]1)c1cccc(OC(F)(F)F)c1 (stereo not shown) [Example 85, 3-[(1H-1,3-benzodiazol-2-yl)amino]-N-(cyanomethyl)-3-[3-(trifluoromethoxy)phenyl]propanamide] |
| < 10 | Cc1cc(C(CC(=O)NCC#N)Nc2nc3ccccc3[nH]2)cc(C)c1F (stereo not shown) [Example 86, 3-[(1H-1,3-benzodiazol-2-yl)amino]-N-(cyanomethyl)-3-(4-fluoro-3,5-dimethylphenyl)propanamide] |
| < 10 | COCCNC(=O)CC(Nc1nc2ccccc2[nH]1)c1cccc(SC2CCC2)c1 (stereo not shown) [Example 87, 3-[(1H-1,3-benzodiazol-2-yl)amino]-3-[3-(cyclobutylsulfanyl)phenyl]-N-(2-methoxyethyl)propanamide] |
| < 10 | O=C(CC(Nc1nc2ccccc2[nH]1)c1cccc(OC(F)(F)F)c1)NCc1ccon1 (stereo not shown) [Example 88, 3-[(1H-1,3-benzodiazol-2-yl)amino]-N-(1,2-oxazol-3-ylmethyl)-3-[3-(trifluoromethoxy)phenyl]propanamide] |
| < 10 | O=C(CC(Nc1nc2ccccc2[nH]1)c1cccc(SC(F)(F)F)c1)NCc1nc2ccccc2o1 (stereo not shown) [Example 89, 3-[(1H-1,3-benzodiazol-2-yl)amino]-N-(1,3-benzoxazol-2-ylmethyl)-3-{3-[(trifluoromethyl)sulfanyl]phenyl}propanamide] |
